Reference: PMC5971061, “Differential Effects of Linkers on the Activity of Amphiphilic Tobramycin Antifungals” (Molecules : A Journal of Synthetic Chemistry and Natural …, 2018)
≈ marks a conversion by molar mass, not a printed value. Where two headings read alike, the source gives them in different places.

Columns and labels:
[1] = test system: Candida glabrata clinical isolate CG3; assay: MIC, broth microdilution (CLSI M27-A3), CG3; format: cell-based; settings: Nakaseomyces glabratus; MIC-0, CG3, 35 °C 48 h
Description: (§1) The final concentrations of compounds 3, 4, 7a, 7b, 9, and 16, as well as that of TOB tested in this study ranged from 0.24–62.5 μg/mL. CAS was used as a positive control and the final concentrations tested for CAS ranged from 0.03–31.3 μg/mL. Briefly, overnight yeast cultures were grown in yeast peptone dextrose (YPD) broth and the cell density was adjusted to an OD600 of 0.12 (~1 × 10^6 CFU/mL) by using a spectrophotometer. Yeast cell suspensions were further diluted to achieve 1–5 × 10^3 CFU/mL in RPMI 1640 medium, and 100 μL of these yeast cells was added to 96-well microtiter plates containing RPMI 1640 medium and titrated compounds. Each test was performed in triplicate. The plates were incubated at 35 °C for 48 h.

[2] = test system: Candida parapsilosis clinical isolate CP2; assay: MIC, broth microdilution (CLSI M27-A3), CP2; format: cell-based; settings: Lodderomyces parapsilosis; MIC-0, CP2, 35 °C 48 h
Description: as §1

[3] = test system: Aspergillus terreus ATCC MYA-3633 (strain M); assay: MIC, filamentous fungi (CLSI M38-A2), strain M; format: cell-based; settings: MIC-0, strain M, 35 °C 72 h
Description: (§2) The spores were harvested from sporulating cultures growing on potato dextrose agar (PDA) by filtration through sterile glass wool and enumerated by using a hemocytometer (Hausser Scientific, Horsham, PA, USA) to obtain the desired inoculum size. Two-fold serial dilutions of compounds 3, 4, 7a, 7b, 9, and 16, as well as CAS and TOB were made in sterile 96-well microtiter plates to obtain the final concentration range of 0.24–62.5 μg/mL for TOB and TOB derivatives as well as 0.03–31.3 μg/mL for CAS in the RPMI 1640 medium. The spore suspensions were added to the wells to afford a final concentration of 5 × 10^5 spores/mL. The plates were incubated at 35 °C for 72 h. […] Each test was performed in triplicate.

[4] = test system: C. albicans ATCC MYA-2310(S) (strain E); assay: MIC, broth microdilution (CLSI M27-A3), yeast strain E; format: cell-based; settings: Candida albicans; MIC-0, strain E, 35 °C 48 h
Description: as §1

[5] = test system: C. albicans ATCC 10231 (strain A); assay: MIC, broth microdilution (CLSI M27-A3), yeast strain A; format: cell-based, Candida albicans; settings: Candida albicans, ATCC10231; MIC-0, strain A, 35 °C 48 h
Description: as §1

[6] = test system: Cryptococcus neoformans clinical isolate CN1; assay: MIC, broth microdilution (CLSI M27-A3), CN1; format: cell-based; settings: MIC-0, CN1, 35 °C 48 h
Description: as §1

[7] = test system: nine non-albicans Candida strains (H-J, CG1-3, CP1-3); assay: MIC across the panel of nine non-albicans Candida strains; format: cell-based, Candida glabrata, Candida krusei, Candida parapsilosis
Description: as §1

[8] = test system: Candida parapsilosis ATCC 22019 (strain J); assay: MIC, broth microdilution (CLSI M27-A3), yeast strain J; format: cell-based; settings: Lodderomyces parapsilosis, ATCC22019; MIC-0, strain J, 35 °C 48 h
Description: as §1

[9] = test system: Aspergillus nidulans ATCC 38163 (strain L); assay: MIC, filamentous fungi (CLSI M38-A2), strain L; format: cell-based; settings: MIC-0, strain L, 35 °C 72 h
Description: as §2

[10] = test system: C. albicans ATCC MYA-1237(R) (strain F); assay: MIC, broth microdilution (CLSI M27-A3), yeast strain F; format: cell-based; settings: Candida albicans; MIC-0, strain F, 35 °C 48 h
Description: as §1

[11] = test system: Candida glabrata clinical isolate CG1; assay: MIC, broth microdilution (CLSI M27-A3), CG1; format: cell-based; settings: Nakaseomyces glabratus; MIC-0, CG1, 35 °C 48 h
Description: as §1

[12] = test system: Candida glabrata ATCC 2001 (strain H); assay: MIC, broth microdilution (CLSI M27-A3), yeast strain H; format: cell-based; settings: Nakaseomyces glabratus, ATCC2001; MIC-0, strain H, 35 °C 48 h
Description: as §1

[13] = test system: C. albicans ATCC MYA-1003(R) (strain G); assay: MIC, broth microdilution (CLSI M27-A3), yeast strain G; format: cell-based; settings: Candida albicans; MIC-0, strain G, 35 °C 48 h
Description: as §1

[14] = test system: seven C. albicans strains (A-G); assay: MIC across the panel of seven C. albicans strains; format: cell-based; settings: Candida albicans; across all seven C. albicans strains tested
Description: as §1

[15] = test system: BEAS-2B cell line; assay: In vitro cytotoxicity assay (resazurin), BEAS-2B; format: cell-based, human; settings: 24 h; for IC50: Homo sapiens, resazurin
Description: Mammalian cytotoxicity assays were performed as previously described with minor modifications. The normal human bronchial epithelial cells BEAS-2B and the human lung carcinoma epithelial cells A549 were grown in DMEM containing 10% fetal bovine serum (FBS) and 1% antibiotics. The confluent cells were then trypsinized with 0.05% trypsin and 0.53 mM EDTA, and resuspended in fresh DMEM medium. The cells were transferred into 96-well microtiter plates at a density of 3000 cells/well and were grown for 24 h. The following day, the medium was replaced by a fresh culture medium containing serially diluted compounds 3, 4, 7a, 7b, and 9, as well as the parent drug TOB at final concentrations of 0.48–62.5 μg/mL or sterile ddH2O (negative control). The cells were incubated for an additional 24 h at 37 °C with 5% CO2 in a humidified incubator. To evaluate cell survival, each well was treated with 10 μL (25 μg/mL) of resazurin sodium salt (Sigma-Aldrich) for 4–6 h. Metabolically active cells can convert resazurin (blue) to the highly fluorescent dye resorufin (pink), which was detected at λ560 excitation and λ590 emission wavelengths by using a SpectraMax M5 plate reader. Triton X-100® (1% v/v) gave the complete loss of cell viability and was used as the positive control. The percentage survival rates were calculated by using the following formula: % cell survival = [(fluorescence of sample) − (fluorescence of blank)] × 100/[(fluorescence of negative control) − (fluorescence of blank)].

[16] = Aspergillus nidulans, ATCC38163, 72 h, read-out: MIC

MIC [1] [µg/mL] | MIC [2] [µg/mL] | MIC [3] [µg/mL] | MIC [4] [µg/mL] | MIC [5] [µg/mL] | MIC [6] [µg/mL] | MIC [7] [µg/mL] | MIC [8] [µg/mL] | MIC [9, 16] [µg/mL] | MIC [9] [µg/mL] | MIC [10] [µg/mL] | MIC [11] [µg/mL] | MIC [12] [µg/mL] | MIC [13] [µg/mL] | MIC [14] [µg/mL] | SMILES | IC50 [15] [µg/mL] | toxicity (in words) ([15]; 0.48-62.5 μg/mL)
15.6 (≈ 23.9 µM) | 7.8 (≈ 12 µM) | > 62.5 | 15.6 (≈ 23.9 µM) | 15.6 (≈ 23.9 µM) | 0.975 (≈ 1.5 µM) | 3.9 to 15.6 (≈ 5.98 to 23.9 µM) | 7.8 (≈ 12 µM) | 1.95 to 3.9 (≈ 2.99 to 5.98 µM) | 3.9 (≈ 5.98 µM) | 7.8 (≈ 12 µM) | 15.6 (≈ 23.9 µM) | 7.8 (≈ 12 µM) | 15.6 (≈ 23.9 µM) | 7.8 to 31.3 (≈ 12 to 48 µM) | CCCCCCCCCCCCSC[C@H]1O[C@H](O[C@@H]2[C@@H](O)[C@H](O[C@H]3O[C@H](CN)[C@@H](O)C[C@H]3N)[C@@H](N)C[C@H]2N)[C@H](O)[C@@H](N)[C@@H]1O [Compound 3, O-3-Amino-3-deoxy-6-S-dodecyl-6-thio-α-D-glucopyranosyl-(1→6)-O-[2,6-diamino-2,3,6-trideoxy-α-D-ribo-hexopyranosyl-(1→4)]-2-deoxy-D-streptamine] | 31.3 to 62.5 (≈ 48 to 95.9 µM) | 
3.9 (≈ 5.7 µM) | 3.9 (≈ 5.7 µM) | 62.5 (≈ 91.4 µM) | 15.6 (≈ 22.8 µM) | 15.6 (≈ 22.8 µM) | 1.95 (≈ 2.85 µM) | 3.9 to 15.6 (≈ 5.7 to 22.8 µM) | 7.8 (≈ 11.4 µM) | 1.95 to 3.9 (≈ 2.85 to 5.7 µM) | 3.9 (≈ 5.7 µM) | 15.6 (≈ 22.8 µM) | 7.8 (≈ 11.4 µM) | 15.6 (≈ 22.8 µM) | 15.6 (≈ 22.8 µM) | 7.8 to 31.3 (≈ 11.4 to 45.8 µM) | CCCCCCCCCCCCS(=O)(=O)C[C@H]1O[C@H](O[C@@H]2[C@@H](O)[C@H](O[C@H]3O[C@H](CN)[C@@H](O)C[C@H]3N)[C@@H](N)C[C@H]2N)[C@H](O)[C@@H](N)[C@@H]1O [Compound 4, O-3-Amino-3,6-dideoxy-6-(dodecylsulfonyl)-α-D-glucopyranosyl-(1→6)-O-[2,6-diamino-2,3,6-trideoxy-α-D-ribo-hexopyranosyl-(1→4)]-2-deoxy-D-streptamine] | > 62.5 | 
15.6 (≈ 23.7 µM) | 15.6 (≈ 23.7 µM) | > 62.5 | 31.3 (≈ 47.5 µM) | 31.3 (≈ 47.5 µM) | 0.975 (≈ 1.48 µM) | 15.6 to 62.5 (≈ 23.7 to 94.9 µM) | 15.6 (≈ 23.7 µM) | 1.95 to 3.9 (≈ 2.96 to 5.92 µM) | 3.9 (≈ 5.92 µM) | 62.5 (≈ 94.9 µM) | 31.3 (≈ 47.5 µM) | 62.5 (≈ 94.9 µM) | 62.5 (≈ 94.9 µM) | 31.3 to 62.5 (≈ 47.5 to 94.9 µM) | CCCCCCCCCCc1cn(C[C@H]2O[C@H](O[C@@H]3[C@@H](O)[C@H](O[C@H]4O[C@H](CN)[C@@H](O)C[C@H]4N)[C@@H](N)C[C@H]3N)[C@H](O)[C@@H](N)[C@@H]2O)nn1 [Compound 7a, O-3-Amino-3,6-dideoxy-6-(4-decyl-1H-1,2,3-triazol-1-yl)-α-D-glucopyranosyl-(1→6)-O-[2,6-diamino-2,3,6-trideoxy-α-D-ribo-hexopyranosyl-(1→4)]-2-deoxy-D-streptamine] | > 62.5 | 
3.9 (≈ 5.68 µM) | 1.95 (≈ 2.84 µM) | 62.5 (≈ 91 µM) | 7.8 (≈ 11.4 µM) | 3.9 (≈ 5.68 µM) | 0.48 (≈ 0.699 µM) | 1.95 to 7.8 (≈ 2.84 to 11.4 µM) | 1.95 (≈ 2.84 µM) | 1.95 to 3.9 (≈ 2.84 to 5.68 µM) | 1.95 (≈ 2.84 µM) | 7.8 (≈ 11.4 µM) | 3.9 (≈ 5.68 µM) | 7.8 (≈ 11.4 µM) | 7.8 (≈ 11.4 µM) | 3.9 to 15.6 (≈ 5.68 to 22.7 µM) | CCCCCCCCCCCCc1cn(C[C@H]2O[C@H](O[C@@H]3[C@@H](O)[C@H](O[C@H]4O[C@H](CN)[C@@H](O)C[C@H]4N)[C@@H](N)C[C@H]3N)[C@H](O)[C@@H](N)[C@@H]2O)nn1 [Compound 7b, O-3-Amino-3,6-dideoxy-6-(4-dodecyl-1H-1,2,3-triazol-1-yl)-α-D-glucopyranosyl-(1→6)-O-[2,6-diamino-2,3,6-trideoxy-α-D-ribo-hexopyranosyl-(1→4)]-2-deoxy-D-streptamine] | > 62.5 | 
15.6 (≈ 24 µM) | 15.6 (≈ 24 µM) | > 62.5 | 31.3 (≈ 48.2 µM) | 31.3 (≈ 48.2 µM) | 0.975 (≈ 1.5 µM) | 7.8 to 31.3 (≈ 12 to 48.2 µM) | 7.8 (≈ 12 µM) | 1.95 to 3.9 (≈ 3.01 to 6.01 µM) | 3.9 (≈ 6.01 µM) | 31.3 (≈ 48.2 µM) | 15.6 (≈ 24 µM) | 31.3 (≈ 48.2 µM) | 31.3 (≈ 48.2 µM) | 15.6 to 62.5 (≈ 24 to 96.3 µM) | CCCCCCCCCCCC(=O)NC[C@H]1O[C@H](O[C@@H]2[C@@H](O)[C@H](O[C@H]3O[C@H](CN)[C@@H](O)C[C@H]3N)[C@@H](N)C[C@H]2N)[C@H](O)[C@@H](N)[C@@H]1O [Compound 9, O-3-Amino-3,6-dideoxy-6-[(1-oxododecyl)amino]-α-D-glucopyranosyl-(1→6)-O-[2,6-diamino-2,3,6-trideoxy-α-D-ribo-hexopyranosyl-(1→4)]-2-deoxy-D-streptamine] | > 62.5 | 
> 62.5 | > 62.5 | > 62.5 | > 62.5 | > 62.5 | > 62.5 | > 62.5 | > 62.5 | > 62.5 |  | > 62.5 | > 62.5 | > 62.5 | > 62.5 | > 62.5 | NC[C@H]1O[C@H](O[C@H]2[C@H](O)[C@@H](O[C@H]3O[C@H](CO)[C@@H](O)[C@H](N)[C@H]3O)[C@H](N)C[C@@H]2N)[C@H](N)C[C@@H]1O [TOB, tobramycin] |  | little to no toxicity
